# Patent US20110046040A1, “Microorganism-inactivating agent” (CHISSO CORPORATION, priority 2009, published 2011)
# How the values were obtained:
# Format in all cases: cell-based
# Bacillus cereus = experiment: inactivation of microorganisms in water, number of cells in supernatant
# Procedure: (§1) Each test microbe was inoculated to nutrient broth and cultured with shaking at the optimum temperature of the test microbe until the late logarithmic phase. From the microbe culture, the microbe was collected, and the collected microbe was washed with 1.5 mL of physiological saline 2 to 3 times (centrifugation at 13000 rpm for 1 minute) and suspended in 1.5 mL of physiological saline. From the suspension, a 1 mL aliquot was recovered, and this was added to 9 mL of sterile water, followed by sufficient stirring of the resulting suspension (this was used as 10^−1 dilution). From the 10^−1 dilution, 10^−2 to 10^−8 dilutions were sequentially prepared. Each dilution was smeared on a film medium (Sanita-kun; for E. coli and coliform bacteria, for Staphylococcus aureus, for Salmonella, for aerobic bacteria or for fungi: Chisso Corporation) in an amount of 1 mL, followed by culturing at the optimum temperature of the test microbe for 24 to 72 hours and measurement of the number of cells on the film medium.
# (§2) To a sterilized beaker, 500 mL of sterilized water was placed, and 0.20 mL of microbe culture of 10^6 to 10^10 cells/mL was inoculated thereto, to attain an initial cell number of 10^3 to 10^7 cells/mL. Unless otherwise specified, the pH was 6 to 8. After stirring the suspension gently for 5 minutes, PGα21Ca (Nippon Poly-Glu Co., Ltd.) and/or a microbiostatic agent or microbicide was/were added thereto such that a predetermined final concentration(s) was/were attained. After gentle stirring at room temperature for 10 to 15 minutes, the suspension was left to stand for a predetermined length of time. The supernatant was collected and diluted appropriately in an antimicrobial agent-inactivating medium (BHI medium or the like), and 1 mL each of the resulting diluent was smeared on a film medium. Culturing was carried out at the optimum temperature of each test microbe for 24 to 72 hours and the number of cells (cells/mL) on the film medium was measured.
# Bacillus subtilis = experiment: as above
# Procedure: as §1, §2
# Escherichia coli [1] = experiment: as above
# Procedure: as §1, §2
# Klebsiella pneumoniae = experiment: as above
# Procedure: as §1, §2
# Listeria monocytogenes = experiment: as above
# Procedure: as §1, §2
# Pseudomonas aeruginosa = experiment: as above
# Procedure: as §1, §2
# Salmonella choleraesuis = experiment: as above
# Procedure: as §1, §2
# Staphylococcus aureus [2] = experiment: as above
# Procedure: as §1, §2
# Escherichia coli [3] = experiment: inactivation with further addition of the microorganism after predetermined periods; conditions: ε-poly-L-lysine 5 ppm
# Procedure: as §1, §2
# (§3) (3) The inactivation effect of ε-poly-L-lysine, which is a microbicide related to the microorganism-inactivating agent of the present invention, upon its single application to water containing Escherichia coli, Salmonella or Staphylococcus, followed by further addition of the respective microorganisms after predetermined periods of time was studied. The addition of the microorganisms was carried out at 24, 48, 72 and 144 hours after sampling. ε-poly-L-lysine was added at a concentration of 5 ppm. […]
# Salmonella enterica = experiment: as above; conditions: ε-poly-L-lysine 5 ppm
# Procedure: as §1, §2, §3
# Staphylococcus aureus [4] = experiment: as above; conditions: ε-poly-L-lysine 5 ppm
# Procedure: as §1, §2, §3
# [5] = ε-poly-L-lysine 10 ppm, 0 minute later 7.5 × 10^4
# [6] = ε-poly-L-lysine 10 ppm, 0 minute later 2.9 × 10^4
# [7] = ε-poly-L-lysine 5 ppm, initial 3.2 × 10^7
# [8] = ε-poly-L-lysine 10 ppm, 0 minute later 2.5 × 10^6
# [9] = ε-poly-L-lysine 10 ppm, initial 3.2 × 10^7
# [10] = ε-poly-L-lysine 10 ppm, 0 minute later 3.3 × 10^5
# [11] = ε-poly-L-lysine 10 ppm, 0 minute later 8.1 × 10^4
# [12] = ε-poly-L-lysine 10 ppm, 0 minute later 6.2 × 10^5
# [13] = ε-poly-L-lysine 5 ppm, initial 1.2 × 10^7
# [14] = ε-poly-L-lysine 10 ppm, 0 minute later 3.2 × 10^5
# [15] = ε-poly-L-lysine 10 ppm, initial 1.2 × 10^7
# [16] = ε-poly-L-lysine 10 ppm, 0 minute later 2.3 × 10^4
# [17] = further addition of microbe at 24 h (1.3 × 10^8)
# [18] = further addition of microbe at 48 h (5.0 × 10^6)
# [19] = further addition of microbe at 72 h (6.6 × 10^6)
# [20] = further addition of microbe at 144 h (1.2 × 10^7)
# [21] = further addition of microbe at 24 h (3.2 × 10^7)
# [22] = further addition of microbe at 48 h (3.6 × 10^6)
# [23] = further addition of microbe at 72 h (3.0 × 10^6)
# [24] = further addition of microbe at 144 h (3.1 × 10^6)
# [25] = further addition of microbe at 24 h (2.2 × 10^7)
# [26] = further addition of microbe at 48 h (1.4 × 10^6)
# [27] = further addition of microbe at 72 h (6.1 × 10^6)
# [28] = further addition of microbe at 144 h (7.9 × 10^6)
substance,measurement,setting,value
ε-poly-L-lysine,number of cells 2 hours later,"Bacillus cereus; 10 ppm, pH 8, initial 9.5 × 10^4",290 cells/mL
same,number of cells 5 minutes later,Bacillus cereus; [5],140 cells/mL
same,number of cells 15 minutes later,Bacillus cereus; [5],110 cells/mL
same,number of cells 60 minutes later,Bacillus cereus; [5],80 cells/mL
same,number of cells 120 minutes later,Bacillus cereus; [5],<10 cells/mL
same,number of cells 2 hours later,"Bacillus subtilis; 10 ppm, pH 8, initial 6.0 × 10^4",<10 cells/mL
same,number of cells 5 minutes later,Bacillus subtilis; [6],4 × 10^3 cells/mL
same,number of cells 15 minutes later,Bacillus subtilis; [6],30 cells/mL
same,number of cells 60 minutes later,Bacillus subtilis; [6],<10 cells/mL
same,number of cells 120 minutes later,Bacillus subtilis; [6],<10 cells/mL
same,number of cells 2 hours later,"Escherichia coli [1]; 10 ppm, pH 8, initial 5.8 × 10^4",<10 cells/mL
same,number of cells 0.5 hour later,Escherichia coli [1]; [7],3.2 × 10^3 cells/mL
same,number of cells 1 hour later,Escherichia coli [1]; [7],<10 cells/mL
same,number of cells 2 hours later,Escherichia coli [1]; [7],<10 cells/mL
same,number of cells 5 minutes later,Escherichia coli [1]; [8],1.32 × 10^4 cells/mL
same,number of cells 15 minutes later,Escherichia coli [1]; [8],10 cells/mL
same,number of cells 60 minutes later,Escherichia coli [1]; [8],<10 cells/mL
same,number of cells 120 minutes later,Escherichia coli [1]; [8],<10 cells/mL
same,number of cells 0.5 hour later,Escherichia coli [1]; [9],300 cells/mL
same,number of cells 1 hour later,Escherichia coli [1]; [9],<10 cells/mL
same,number of cells 2 hours later,Escherichia coli [1]; [9],<10 cells/mL
same,number of cells 2 hours later,"Klebsiella pneumoniae; 10 ppm, pH 8, initial 1.3 × 10^5",<10 cells/mL
same,number of cells 5 minutes later,Klebsiella pneumoniae; [10],1.8 × 10^4 cells/mL
same,number of cells 15 minutes later,Klebsiella pneumoniae; [10],1.87 × 10^3 cells/mL
same,number of cells 60 minutes later,Klebsiella pneumoniae; [10],10 cells/mL
same,number of cells 120 minutes later,Klebsiella pneumoniae; [10],<10 cells/mL
same,number of cells 2 hours later,"Listeria monocytogenes; 10 ppm, pH 8, initial 2.0 × 10^4",<10 cells/mL
same,number of cells 5 minutes later,Listeria monocytogenes; [11],780 cells/mL
same,number of cells 15 minutes later,Listeria monocytogenes; [11],40 cells/mL
same,number of cells 60 minutes later,Listeria monocytogenes; [11],20 cells/mL
same,number of cells 120 minutes later,Listeria monocytogenes; [11],<10 cells/mL
same,number of cells 2 hours later,"Pseudomonas aeruginosa; 10 ppm, pH 8, initial 2.0 × 10^5",<10 cells/mL
same,number of cells 5 minutes later,Pseudomonas aeruginosa; [12],2.16 × 10^4 cells/mL
same,number of cells 15 minutes later,Pseudomonas aeruginosa; [12],240 cells/mL
same,number of cells 60 minutes later,Pseudomonas aeruginosa; [12],20 cells/mL
same,number of cells 120 minutes later,Pseudomonas aeruginosa; [12],<10 cells/mL
same,number of cells 2 hours later,"Salmonella choleraesuis; 10 ppm, pH 8, initial 4.7 × 10^4",<10 cells/mL
same,number of cells 0.5 hour later,Salmonella choleraesuis; [13],50 cells/mL
same,number of cells 1 hour later,Salmonella choleraesuis; [13],20 cells/mL
same,number of cells 2 hours later,Salmonella choleraesuis; [13],<10 cells/mL
same,number of cells 5 minutes later,Salmonella choleraesuis; [14],480 cells/mL
same,number of cells 15 minutes later,Salmonella choleraesuis; [14],1.4 × 10^3 cells/mL
same,number of cells 60 minutes later,Salmonella choleraesuis; [14],120 cells/mL
same,number of cells 120 minutes later,Salmonella choleraesuis; [14],<10 cells/mL
same,number of cells 0.5 hour later,Salmonella choleraesuis; [15],<10 cells/mL
same,number of cells 1 hour later,Salmonella choleraesuis; [15],<10 cells/mL
same,number of cells 2 hours later,Salmonella choleraesuis; [15],<10 cells/mL
same,number of cells 2 hours later,"Staphylococcus aureus [2]; 10 ppm, pH 8, initial 4.3 × 10^4",<10 cells/mL
same,number of cells 0.5 hour later,Staphylococcus aureus [2]; [13],4.0 × 10^4 cells/mL
same,number of cells 1 hour later,Staphylococcus aureus [2]; [13],2.2 × 10^4 cells/mL
same,number of cells 2 hours later,Staphylococcus aureus [2]; [13],4.2 × 10^3 cells/mL
same,number of cells 5 minutes later,Staphylococcus aureus [2]; [16],8.1 × 10^3 cells/mL
same,number of cells 15 minutes later,Staphylococcus aureus [2]; [16],2.55 × 10^3 cells/mL
same,number of cells 60 minutes later,Staphylococcus aureus [2]; [16],2 × 10^3 cells/mL
same,number of cells 120 minutes later,Staphylococcus aureus [2]; [16],440 cells/mL
same,number of cells 0.5 hour later,Staphylococcus aureus [2]; [15],5.0 × 10^4 cells/mL
same,number of cells 1 hour later,Staphylococcus aureus [2]; [15],7.0 × 10^3 cells/mL
same,number of cells 2 hours later,Staphylococcus aureus [2]; [15],4.8 × 10^3 cells/mL
same,"number of cells, elapsed time 26 hours",Escherichia coli [3]; [17],<10 cells/mL
same,"number of cells, elapsed time 28 hours",Escherichia coli [3]; [17],<10 cells/mL
same,"number of cells, elapsed time 48 hours",Escherichia coli [3]; [17],<10 cells/mL
same,"number of cells, elapsed time 50 hours",Escherichia coli [3]; [18],<10 cells/mL
same,"number of cells, elapsed time 52 hours",Escherichia coli [3]; [18],<10 cells/mL
same,"number of cells, elapsed time 72 hours",Escherichia coli [3]; [18],<10 cells/mL
same,"number of cells, elapsed time 74 hours",Escherichia coli [3]; [19],<10 cells/mL
same,"number of cells, elapsed time 76 hours",Escherichia coli [3]; [19],<10 cells/mL
same,"number of cells, elapsed time 96 hours",Escherichia coli [3]; [19],<10 cells/mL
same,"number of cells, elapsed time 144 hours",Escherichia coli [3]; [19],<10 cells/mL
same,"number of cells, elapsed time 146 hours",Escherichia coli [3]; [20],<10 cells/mL
same,"number of cells, elapsed time 148 hours",Escherichia coli [3]; [20],<10 cells/mL
same,"number of cells, elapsed time 168 hours",Escherichia coli [3]; [20],<10 cells/mL
same,"number of cells, elapsed time 2 hours",Escherichia coli [3]; initial 1.0 × 10^6,<10 cells/mL
same,"number of cells, elapsed time 4 hours",Escherichia coli [3]; initial 1.0 × 10^6,<10 cells/mL
same,"number of cells, elapsed time 24 hours",Escherichia coli [3]; initial 1.0 × 10^6,<10 cells/mL
same,"number of cells, elapsed time 26 hours",Salmonella enterica; [21],<10 cells/mL
same,"number of cells, elapsed time 28 hours",Salmonella enterica; [21],<10 cells/mL
same,"number of cells, elapsed time 48 hours",Salmonella enterica; [21],<10 cells/mL
same,"number of cells, elapsed time 50 hours",Salmonella enterica; [22],<10 cells/mL
same,"number of cells, elapsed time 52 hours",Salmonella enterica; [22],<10 cells/mL
same,"number of cells, elapsed time 72 hours",Salmonella enterica; [22],<10 cells/mL
same,"number of cells, elapsed time 74 hours",Salmonella enterica; [23],<10 cells/mL
same,"number of cells, elapsed time 76 hours",Salmonella enterica; [23],<10 cells/mL
same,"number of cells, elapsed time 96 hours",Salmonella enterica; [23],<10 cells/mL
same,"number of cells, elapsed time 144 hours",Salmonella enterica; [23],<10 cells/mL
same,"number of cells, elapsed time 146 hours",Salmonella enterica; [24],<10 cells/mL
same,"number of cells, elapsed time 148 hours",Salmonella enterica; [24],<10 cells/mL
same,"number of cells, elapsed time 168 hours",Salmonella enterica; [24],<10 cells/mL
same,"number of cells, elapsed time 2 hours",Salmonella enterica; initial 3.0 × 10^6,<10 cells/mL
same,"number of cells, elapsed time 4 hours",Salmonella enterica; initial 3.0 × 10^6,<10 cells/mL
same,"number of cells, elapsed time 24 hours",Salmonella enterica; initial 3.0 × 10^6,<10 cells/mL
same,"number of cells, elapsed time 26 hours",Staphylococcus aureus [4]; [25],2.2 × 10^6 cells/mL
same,"number of cells, elapsed time 28 hours",Staphylococcus aureus [4]; [25],2.1 × 10^5 cells/mL
same,"number of cells, elapsed time 48 hours",Staphylococcus aureus [4]; [25],<10 cells/mL
same,"number of cells, elapsed time 50 hours",Staphylococcus aureus [4]; [26],2.5 × 10^4 cells/mL
same,"number of cells, elapsed time 52 hours",Staphylococcus aureus [4]; [26],1.2 × 10^4 cells/mL
same,"number of cells, elapsed time 72 hours",Staphylococcus aureus [4]; [26],<10 cells/mL
same,"number of cells, elapsed time 74 hours",Staphylococcus aureus [4]; [27],1.7 × 10^3 cells/mL
same,"number of cells, elapsed time 76 hours",Staphylococcus aureus [4]; [27],20 cells/mL
same,"number of cells, elapsed time 96 hours",Staphylococcus aureus [4]; [27],<10 cells/mL
same,"number of cells, elapsed time 144 hours",Staphylococcus aureus [4]; [27],<10 cells/mL
same,"number of cells, elapsed time 146 hours",Staphylococcus aureus [4]; [28],1.0 × 10^3 cells/mL
same,"number of cells, elapsed time 148 hours",Staphylococcus aureus [4]; [28],90 cells/mL
same,"number of cells, elapsed time 168 hours",Staphylococcus aureus [4]; [28],<10 cells/mL
same,"number of cells, elapsed time 2 hours",Staphylococcus aureus [4]; initial 2.0 × 10^6,<10 cells/mL
same,"number of cells, elapsed time 4 hours",Staphylococcus aureus [4]; initial 2.0 × 10^6,<10 cells/mL
same,"number of cells, elapsed time 24 hours",Staphylococcus aureus [4]; initial 2.0 × 10^6,<10 cells/mL
